{"source": "patent US8163509B2", "about": "“Biological markers predictive of anti-cancer response to insulin-like growth factor-1 receptor kinase inhibitors” (The Regents of the University of Colorado, A Body Corporate, priority 2008, dated 2012)", "key": {"[1]": {"biological_target": "T1, IGF1R (Homo sapiens, UniProt P08069)", "T1 construct": "endogenous in cells; host or cells: HT29 and HCT116 CRC cell lines", "T1 sequence (P08069 31-1367)": "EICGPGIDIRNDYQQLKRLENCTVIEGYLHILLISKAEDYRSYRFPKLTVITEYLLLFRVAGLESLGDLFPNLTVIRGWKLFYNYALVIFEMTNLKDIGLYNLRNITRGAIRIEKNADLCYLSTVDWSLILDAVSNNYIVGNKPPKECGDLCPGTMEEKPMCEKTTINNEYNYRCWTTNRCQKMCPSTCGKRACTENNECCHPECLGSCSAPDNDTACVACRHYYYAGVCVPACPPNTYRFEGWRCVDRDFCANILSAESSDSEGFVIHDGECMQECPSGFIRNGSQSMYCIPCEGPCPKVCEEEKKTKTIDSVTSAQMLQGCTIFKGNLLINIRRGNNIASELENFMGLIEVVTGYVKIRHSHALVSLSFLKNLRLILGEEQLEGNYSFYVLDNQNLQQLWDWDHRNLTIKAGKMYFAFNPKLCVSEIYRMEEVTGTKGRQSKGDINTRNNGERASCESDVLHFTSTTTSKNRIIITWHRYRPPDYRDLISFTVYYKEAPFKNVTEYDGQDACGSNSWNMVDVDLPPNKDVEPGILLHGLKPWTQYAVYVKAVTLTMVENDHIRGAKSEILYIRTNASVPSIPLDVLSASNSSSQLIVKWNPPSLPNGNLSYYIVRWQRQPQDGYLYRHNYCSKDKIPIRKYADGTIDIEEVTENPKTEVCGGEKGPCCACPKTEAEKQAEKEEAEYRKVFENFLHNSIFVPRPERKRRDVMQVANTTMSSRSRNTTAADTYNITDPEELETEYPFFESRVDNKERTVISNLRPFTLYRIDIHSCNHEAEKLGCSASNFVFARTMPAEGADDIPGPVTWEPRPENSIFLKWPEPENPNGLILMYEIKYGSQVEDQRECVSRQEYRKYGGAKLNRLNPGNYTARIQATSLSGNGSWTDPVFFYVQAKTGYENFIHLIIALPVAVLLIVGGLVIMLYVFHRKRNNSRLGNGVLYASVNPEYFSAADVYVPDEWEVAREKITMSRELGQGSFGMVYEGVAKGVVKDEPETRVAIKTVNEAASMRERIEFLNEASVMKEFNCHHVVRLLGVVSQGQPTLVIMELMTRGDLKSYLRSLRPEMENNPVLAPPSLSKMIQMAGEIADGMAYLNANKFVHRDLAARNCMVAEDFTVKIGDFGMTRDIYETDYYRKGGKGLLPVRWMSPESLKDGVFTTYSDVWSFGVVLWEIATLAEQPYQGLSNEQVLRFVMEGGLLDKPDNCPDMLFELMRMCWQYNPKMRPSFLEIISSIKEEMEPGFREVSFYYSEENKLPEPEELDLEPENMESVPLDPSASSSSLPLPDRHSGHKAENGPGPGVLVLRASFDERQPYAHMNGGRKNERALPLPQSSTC", "test": "Meso Scale Discovery (MSD) assay of phosphorylated IGF1R", "type": "cell-based", "conditions": "HT29 and HCT116, 72 h", "experimental": "Detection of IGF1R using Meso Scale Discovery assays (MSD): HT29 and HCT116 CRC cell lines were seeded into 6-well plates, allowed to attach for 24 hours and exposed to PQIP and chemotherapy (SN38, or Oxaliplatin) alone or in combination for 72 h. Following exposure, cells were rinsed with PBS and scraped into RIPA lysis buffer containing protease inhibitors, EDTA, NaF, and sodium orthovanadate. Total protein was quantified using the BioRad Dc Protein Assay (BioRad, Hercules, Calif.). Fifty micrograms of protein in 25 μL was added per well for MSD detection of phosphorylated IGF-1R according to manufacturer's instructions (Meso Scale Discovery, Gaithersburg, Md.).\nCells were exposed to PQIP (0.4 μmol/L) and chemotherapy (SN38 0.004 μmol/L, or Oxaliplatin 1.0 μmol/L) alone or in combination for 72 h. Protein was extracted and analyzed for phospho/total IGF1R levels using a Meso Scale Discovery (MSD; Gaithersburg, Md. 20877) assay."}, "[2]": {"tested_on": "Colo320 CRC cell line", "test": "SRB proliferation assay, 72 h", "type": "cell-based", "conditions": "Homo sapiens, COLO 320, 0.05-5 μM, read-out: IC50, growth inhibition by PQIP (SRB)", "experimental": "Cell Lines and Culture. […] human colon cancer cell lines, were obtained from American Type Culture Collection (Manassas, Va.). Cells were grown in RPMI medium supplemented with 10% fetal bovine serum, 1% non-essential amino acids, 1% penicillin/streptomycin and were maintained at 37° C. in an incubator under an atmosphere containing 5% CO2. The cells were routinely screened for the presence of mycoplasma (MycoAlert, Cambrex Bio Science, Baltimore, Md.) and were exposed to PQIP when they reached approximately 70% confluence.\nThe CRC cell lines were treated with a range of concentrations of PQIP (from 0.05-5 μM) for 72 hours."}, "[3]": {"tested_on": "p42/44 MAPK", "test": "Immunoblotting, pathway activation", "type": "cell-based, human", "conditions": "PQIP 0.4 μmol/L 3 h pre-exposure, IGF-2 100 ng/mL 10 minutes", "experimental": "Immunoprecipitation and Immunoblotting: HT29 and HCT116 CRC cell lines were seeded into 6-well plates, allowed to attach for 24 hours and serum starved overnight. Cells were then exposed to IGF-2 (100 ng/mL) for 10 minutes with or without a 3 hour PQIP (0.4 μmol/L) pretreatment. After treatment cells were rinsed with PBS and scraped into RIPA lysis buffer containing protease inhibitors, EDTA, NaF, and sodium orthovanadate. Total protein was quantified using the BioRad Dc Protein Assay (BioRad, Hercules, Calif.). Total protein (30 μg) was electrophoresed on a 4-20% gradient SDS-polyacrylimide gel then electrophoretically transferred to Immobilon-P (Millipore, Bedford, Mass.). Membranes were blocked for 1 hour in 5% non-fat dry milk (BioRad, Hercules, Calif.) in TBS-Tween (0.1%) prior to overnight incubation at 4° C. with the appropriate primary antibody. Blots were then washed 3×20 minutes in TBS-Tween (0.1%) and were incubated with the appropriate secondary anti-rabbit or anti-mouse IgG1 horseradish peroxidase-linked antibody at 1:20,000 (Jackson ImmunoResearch, West Grove, Pa.) for one hour at room temperature. After three additional washes, the blots were developed by Immobilon Western Chemiluminescent HRP substrate (Millipore, Billerica, Mass.). Anti-IGF1Rβ rabbit polyclonal (Cell Signaling Technology, Danvers, Mass.) was used for immunoprecipitation at a 1:50 dilution. The following primary antibodies were used for immunoblotting (all from Cell Signaling Technology, Danvers, Mass.). Anti-phosphorylated Akt (T308) rabbit polyclonal, anti-phosphorylated S6 ribosomal protein (S235/236) rabbit mAb, anti-phosphorylated p44/42 MAPK (Thr202/Tyr204) rabbit mAb, and anti-phosphorylated tyrosine mouse mAb at 1:1.000. Anti-Akt (pan) rabbit mAb, anti-S6 ribosomal protein rabbit mAb, anti-p44/42 MAP Kinase rabbit mAb, anti Pan-Actin rabbit polyclonal, anti-IGF1Rβ rabbit polyclonal, anti-PARP rabbit polyclonal, and anti-cyclin D1 rabbit polyclonal at 1:5000.\nEffect of PQIP on receptor phosphorylation and pathway activation: Since PQIP is expected to inhibit autophosphorylation of IGF1R, we tested its ability to inhibit IGF-2 mediated activation of the receptor and pathway. One PQIP sensitive and one PQIP resistant CRC cell line were chosen for immunoprecipitation and immunoblotting analysis. Following 18 h serum starvation, HT29 and HCT116 CRC cell lines were stimulated or unstimulated for 10 minutes with 100 ng/mL of IGF-2 with or without a 3 h pre-exposure to PQIP (0.4 μmol/L)."}, "[4]": {"tested_on": "HCT116 CRC cell line", "test": "Gene expression analysis post PQIP exposure (gene array)", "type": "cell-based, human", "conditions": "400 nM PQIP, 72 hours", "experimental": "(§1) Microarray Analysis: Cells were plated at 2×106 in 6-well plates 24 h prior to harvest. After 24 hours cells were rinsed twice with PBS, and RNA was prepared using a RNeasy Plus mini kit (Qiagen, Valencia, Calif.). RNA stabilization, isolation, and microarray sample labeling were carried out using standard methods for reverse transcription and one round of in vitro transcription. HG-U133 set microarrays were hybridized with 10 μg of cRNA and processed according to the protocols of the manufacturer (Affymetrix). Hybridization signals and detection calls were generated in BioConductor, using the germa and affy software packages. Microarray data was analyzed using BRB ArrayTools v3.2 developed by Dr. Richard Simon and Amy Peng Lam.\n(§2) Gene Expression Analysis Post PQIP Exposure: In order to identify genes that are modulated following exposure to PQIP, 5 sensitive and 5 resistant CRC cell lines were treated with 400 nM PQIP for 72 hours, total RNA was purified, and gene array analysis was performed as described previously. The gene expression profiles following PQIP exposure were compared to the respective untreated profiles. To characterize changes in gene expression profile, one PQIP resistant (HCT116) and one PQIP sensitive (HT29) tumor cell type was examined, and caldesmon, metallothioneins, ALDH1A1, and MAP2K6 expression levels were analyzed."}, "[5]": {"tested_on": "HT29 CRC cell line", "test": "Gene expression analysis post PQIP exposure (gene array)", "type": "cell-based, human", "conditions": "400 nM PQIP, 72 hours", "experimental": "as §1, §2"}}, "note": "pIC50: −log10 of the molar value.", "data": [{"smiles": "CN1CCN([C@H]2C[C@@H](c3nc(-c4ccc5ccc(-c6ccccc6)nc5c4)c4c(N)nccn43)C2)CC1", "note": "[PQIP, cis-3-[3-(4-Methyl-piperazin-1-yl)-cyclobutyl]1-(2-phenyl-quinolin-7-yl)-imidazo[1,5-a]pyrazin-8-ylamine]", "values": [{"measurement": "effect on phosphorylated IGF1R, PQIP in combination with SN38 or Oxaliplatin", "setting": "[1]; PQIP 0.4 μmol/L plus SN38 0.004 μmol/L or Oxaliplatin 1.0 μmol/L", "value": "inhibited"}, {"measurement": "effect on phosphorylated IGF1R, agent alone", "setting": "[1]; PQIP 0.4 μmol/L, SN38 0.004 μmol/L, Oxaliplatin 1.0 μmol/L", "value": "inhibited"}, {"measurement": "pIC50", "setting": "[2]", "value": "> 6.30"}, {"measurement": "IGF-2 induced phosphorylation of p42/44 MAPK", "setting": "[3]; HCT116", "value": "not in resistant HCT116"}, {"measurement": "IGF-2 induced phosphorylation of p42/44 MAPK", "setting": "[3]; HT29", "value": "inhibited"}, {"measurement": "Fold change of post exposure PQIP to untreated, ALDH1A1 expression", "setting": "[4]", "value": 2.3, "unit": "fold"}, {"measurement": "Fold change of post exposure PQIP to untreated, CALD1 expression", "setting": "[4]", "value": 1.9, "unit": "fold"}, {"measurement": "Fold change of post exposure PQIP to untreated, MAP2K6 expression", "setting": "[4]", "value": 0.7, "unit": "fold"}, {"measurement": "Fold change of post exposure PQIP to untreated, MT1E expression", "setting": "[4]", "value": 1.2, "unit": "fold"}, {"measurement": "Fold change of post exposure PQIP to untreated, MT1F expression", "setting": "[4]", "value": 1.6, "unit": "fold"}, {"measurement": "Fold change of post exposure PQIP to untreated, MT1G expression", "setting": "[4]", "value": 1.1, "unit": "fold"}, {"measurement": "Fold change of post exposure PQIP to untreated, MT1H expression", "setting": "[4]", "value": 1.8, "unit": "fold"}, {"measurement": "Fold change of post exposure PQIP to untreated, MT1M expression", "setting": "[4]", "value": 1.5, "unit": "fold"}, {"measurement": "Fold change of post exposure PQIP to untreated, MT1X expression", "setting": "[4]", "value": 2.0, "unit": "fold"}, {"measurement": "Fold change of post exposure PQIP to untreated, MT2A expression", "setting": "[4]", "value": 1.0, "unit": "fold"}, {"measurement": "Fold change of post exposure PQIP to untreated, ALDH1A1 expression", "setting": "[5]", "value": 0.56, "unit": "fold"}, {"measurement": "Fold change of post exposure PQIP to untreated, CALD1 expression", "setting": "[5]", "value": 1.5, "unit": "fold"}, {"measurement": "Fold change of post exposure PQIP to untreated, MAP2K6 expression", "setting": "[5]", "value": 0.87, "unit": "fold"}, {"measurement": "Fold change of post exposure PQIP to untreated, MT1E expression", "setting": "[5]", "value": 12.5, "unit": "fold"}, {"measurement": "Fold change of post exposure PQIP to untreated, MT1F expression", "setting": "[5]", "value": 10.8, "unit": "fold"}, {"measurement": "Fold change of post exposure PQIP to untreated, MT1G expression", "setting": "[5]", "value": 4.5, "unit": "fold"}, {"measurement": "Fold change of post exposure PQIP to untreated, MT1H expression", "setting": "[5]", "value": 11.0, "unit": "fold"}, {"measurement": "Fold change of post exposure PQIP to untreated, MT1M expression", "setting": "[5]", "value": 15.2, "unit": "fold"}, {"measurement": "Fold change of post exposure PQIP to untreated, MT1X expression", "setting": "[5]", "value": 16.0, "unit": "fold"}, {"measurement": "Fold change of post exposure PQIP to untreated, MT2A expression", "setting": "[5]", "value": 8.1, "unit": "fold"}]}]}
